Results reported in patent publication US20240025907A1, “QUINAZOLINE PAN-KRas INHIBITORS” (Mirati Therapeutics, Inc., priority 2022, published 2024).
Like-named read-outs stand apart in the source and are kept apart here.

How the values were obtained:
[1] = system: KRas-mediated Phosphorylation of ERK in H358 cells; test: Cisbio HTRF pERK assay, H358 cells; assay type: cell-based; details: H358 cells, 3 hrs compound, read-out: Inhibition (HTRF IC50 nM) of KRas-mediated Phosphorylation of ERK, H358
[2] = system: KRas-mediated Phosphorylation of ERK in H460 cells; test: Cisbio HTRF pERK assay, H460 cells; assay type: cell-based; details: H460 cells, 3 hrs compound, read-out: Inhibition (HTRF IC50 nM) of KRas-mediated Phosphorylation of ERK, H460
[3] = system: KRas-mediated Phosphorylation of ERK in A549 cells; test: Cisbio HTRF pERK assay, A549 cells; assay type: cell-based; details: A549 cells, 3 hrs compound, read-out: Inhibition (HTRF IC50 nM) of KRas-mediated Phosphorylation of ERK, A549
[4] = system: KRas-mediated Phosphorylation of ERK in PSN1 cells; test: Cisbio HTRF pERK assay, PSN1 cells; assay type: cell-based; details: 3 hour compound, read-out: Inhibition (HTRF IC50 nM) of KRas-mediated Phosphorylation of ERK, PSN1
Description: (§1) Inhibition of KRas Phosphorylation of ERK (HTRF) by Exemplary Compounds of Formula (I) • Cisbio HTRF Advanced pERK Assay Catalog #64AERPEH • Cell: MKN1, PSN1 • Procedure: • Day 1: Seed 6,000 cells/well −25 μl/well in 384-well white solid bottom plate; RPM1_10% FBS.

[5] = system: KRas-mediated Phosphorylation of ERK in MKN1 cells; test: Cisbio HTRF pERK assay, MKN1 cells; assay type: cell-based; details: Homo sapiens, MKN-1, 3 hour compound, read-out: Inhibition (HTRF IC50 nM) of KRas-mediated Phosphorylation of ERK, MKN1
Description: as §1

[6] = system: KRas-mediated Phosphorylation of ERK in HCT116 cells; test: Cisbio HTRF pERK assay, HCT116 cells; assay type: cell-based; details: HCT116 cells, 3 hrs compound, read-out: Inhibition (HTRF IC50 nM) of KRas-mediated Phosphorylation of ERK, HCT116
[7] = system: KRas-mediated Phosphorylation of ERK in H727 cells; test: Cisbio HTRF pERK assay, H727 cells; assay type: cell-based; details: 3 hrs compound, read-out: Inhibition (HTRF IC50 nM) of KRas-mediated Phosphorylation of ERK, H727
[8] = system: KRas-mediated Phosphorylation of ERK in H2009 cells; test: Cisbio HTRF pERK assay, H2009 cells; assay type: cell-based; details: read-out: Inhibition (HTRF IC50 nM) of KRas-mediated Phosphorylation of ERK, H2009
[9] = system: KRas-mediated Phosphorylation of ERK in AsPC-1 cells; test: Cisbio HTRF pERK assay, AsPC-1 cells; assay type: cell-based; details: 3 hrs compound, read-out: Inhibition (HTRF IC50 nM) of KRas-mediated Phosphorylation of ERK, AsPC-1
KRas^G12C = biological target: T1, KRas^G12C (Homo sapiens, UniProt P01116, G12C); test: KRas TR-FRET tracer displacement binding assay, G12C; details: 60-minute incubation
T1 construct: Biotinylated KRas (corresponding to amino acids 1-169, produced at Accelegan Inc.); biotin (biotinylated); purchased Accelegan Inc
Description: (§2) KRas^WT, KRas^G12A, KRas^G12C, KRas^G12D, KRas^G12R, KRas^G12S, KRas^G12V, KRas^G13D, or KRas^Q61H was used in the assay.
(§3) The ability of a compound to bind to KRas was measured using a TR-FRET displacement assay. Biotinylated KRas (corresponding to amino acids 1-169, produced at Accelegan Inc.) was incubated with custom made Cy5 labelled tracer, terbium streptavidin (Cisbio Inc.) and compound (1% DMSO final) in buffer (50 mM HEPES, pH 7.5, 5 mM MgCl2, 0.005% Tween-20 and 1 mM DTT). After a 60-minute incubation at room temperature, the reaction was measured using a BMG LABTECH CLARIO star Plus via TR-FRET.

KRas^G12S = biological target: T2, KRas^G12S (Homo sapiens, UniProt P01116, G12S); test: KRas TR-FRET tracer displacement binding assay, G12S; details: 60-minute incubation
T2 construct: Biotinylated KRas (corresponding to amino acids 1-169, produced at Accelegan Inc.); biotin (biotinylated); purchased Accelegan Inc
Description: as §2, §3

KRas^G12V = biological target: T3, KRas^G12V (Homo sapiens, UniProt P01116, G12V); test: KRas TR-FRET tracer displacement binding assay, G12V; details: 60-minute incubation
T3 construct: Biotinylated KRas (corresponding to amino acids 1-169, produced at Accelegan Inc.); biotin (biotinylated); purchased Accelegan Inc
Description: as §2, §3

KRas^WT = biological target: T4, KRas^WT (Homo sapiens, UniProt P01116); test: KRas TR-FRET tracer displacement binding assay, WT; details: 60-minute incubation
T4 construct: Biotinylated KRas (corresponding to amino acids 1-169, produced at Accelegan Inc.); biotin (biotinylated); purchased Accelegan Inc
Description: as §2, §3

KRas^G12D = biological target: T5, KRas^G12D (Homo sapiens, UniProt P01116, G12D); test: KRas TR-FRET tracer displacement binding assay, G12D; details: 60-minute incubation
T5 construct: Biotinylated KRas (corresponding to amino acids 1-169, produced at Accelegan Inc.); biotin (biotinylated); purchased Accelegan Inc
Description: as §2, §3

[10] = Homo sapiens, NCI-H2009, H2009 cells

T2 sequence (P01116 1-169 isoform P01116-2 G12S): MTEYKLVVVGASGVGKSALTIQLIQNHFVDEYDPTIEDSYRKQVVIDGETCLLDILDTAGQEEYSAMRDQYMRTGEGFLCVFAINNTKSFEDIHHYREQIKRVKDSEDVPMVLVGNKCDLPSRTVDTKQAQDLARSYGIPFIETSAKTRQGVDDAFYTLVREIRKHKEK
T5 sequence (P01116 1-169 isoform P01116-2 G12D): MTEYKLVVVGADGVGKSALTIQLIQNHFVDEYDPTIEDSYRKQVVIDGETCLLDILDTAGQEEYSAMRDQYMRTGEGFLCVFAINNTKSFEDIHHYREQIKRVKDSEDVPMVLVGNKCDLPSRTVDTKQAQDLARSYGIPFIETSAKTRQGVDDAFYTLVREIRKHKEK
T4 sequence (P01116 1-169 isoform P01116-2): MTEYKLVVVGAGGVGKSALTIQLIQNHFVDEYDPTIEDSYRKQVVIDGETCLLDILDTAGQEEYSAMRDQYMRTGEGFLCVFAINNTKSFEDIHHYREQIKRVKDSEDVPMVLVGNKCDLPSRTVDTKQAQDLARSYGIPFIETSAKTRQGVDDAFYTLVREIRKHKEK
T3 sequence (P01116 1-169 isoform P01116-2 G12V): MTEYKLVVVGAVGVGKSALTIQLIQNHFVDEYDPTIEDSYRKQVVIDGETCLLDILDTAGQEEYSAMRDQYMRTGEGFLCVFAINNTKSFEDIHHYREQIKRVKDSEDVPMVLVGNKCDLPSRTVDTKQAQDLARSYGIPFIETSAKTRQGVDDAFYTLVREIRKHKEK
T1 sequence (P01116 1-169 isoform P01116-2 G12C): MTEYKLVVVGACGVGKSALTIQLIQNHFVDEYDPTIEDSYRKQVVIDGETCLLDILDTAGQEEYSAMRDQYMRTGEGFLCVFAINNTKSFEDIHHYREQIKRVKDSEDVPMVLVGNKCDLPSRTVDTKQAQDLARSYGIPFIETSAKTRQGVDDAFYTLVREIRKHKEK

SMILES | IC50 ([1]; Homo sapiens, NCI-H358, 3 h) [nM] | IC50 ([2]; Homo sapiens, NCI-H460, 3 h) [nM] | IC50 ([3]; Homo sapiens, A549, 3 h) [nM] | IC50 ([4]; Homo sapiens, PSN1, 3 h) [nM] | IC50 ([6]; Homo sapiens, HCT-116, 3 h) [nM] | IC50 [7] [nM] | IC50 [8, 10] [nM] | IC50 [9] [nM] | IC50 [1] [nM] | IC50 (KRas^G12C) [nM] | IC50 [2] [nM] | IC50 [3] [nM] | IC50 [6] [nM] | IC50 (KRas^G12S) [nM] | IC50 (KRas^G12V) [nM] | IC50 (KRas^WT) [nM] | IC50 (KRas^G12D) [nM] | IC50 ([7]; Homo sapiens, NCI-H727, 3 h) [nM] | IC50 ([9]; Homo sapiens, ASPC1, 3 h) [nM] | also measured
C[C@@]1(O)COCCN(c2nc(OC[C@@]34CCCN3C[C@H](F)C4)nc3c(F)c(-c4ccc(F)c5sc(N)c(C#N)c45)c(Cl)cc23)C1 (atropisomer, axis not shown; (aS)) [Example 192, 2-amino-4-((R)-6-chloro-8-fluoro-2-(((2R,7aS)-2-fluorotetrahydro-1H-pyrrolizin-7a(5H)-yl)methoxy)-4-((S)-6-hydroxy-6-methyl-1,4-oxazepan-4-yl)quinazolin-7-yl)-7-fluorobenzo[b]thiophene-3-carbonitrile] | 1 | 4 | 8 | 260 | 12 | 5 | 1 | 3 |  |  |  |  |  |  |  |  |  |  |  | IC50 [5]: 1 nM
Cc1c(F)c(N)nc(-c2c(Cl)cc3c(NC(C)c4cccnc4N)nc(OC[C@@]45CCCN4C[C@H](F)C5)nc3c2F)c1C(F)(F)F (single isomer, unassigned; isomer 1) [Example 172] |  |  |  |  |  | 111 |  | 794 | 15 | < 2 | 182 | 111 | 841 | 3 | 3 | 11 | 34 |  |  | IC50 [4]: 4290 nM; IC50 ([8]; H2009 cells): 8 nM
Cc1c(F)c(N)nc(-c2c(Cl)cc3c(NC(C)c4cccnc4N)nc(OC[C@@]45CCCN4C[C@H](F)C5)nc3c2F)c1C(F)(F)F (single isomer, unassigned; isomer 2) [Example 173] |  |  |  |  |  | 252 |  | 1890 | 95 | 454 | 511 | 244 | 2900 | 331 | 430 | 751 | 661 |  |  | IC50 [4]: > 10000 nM; IC50 ([8]; H2009 cells): 40 nM
N#Cc1c(N)sc2c(F)ccc(-c3c(Cl)cc4c(N5CC6CCC(C5)N6)nc(OC[C@@]56CCCN5C/C(=C\F)C6)nc4c3F)c12 [Example 180, (R)-4-(4-((1R,5S)-3,8-diazabicyclo[3.2.1]octan-3-yl)-6-chloro-8-fluoro-2-(((S,Z)-2-(fluoromethylene)tetrahydro-1H-pyrrolizin-7a(5H)-yl)methoxy)quinazolin-7-yl)-2-amino-7-fluorobenzo[b]thiophene-3-carbonitrile] |  |  |  | 1370 |  | 512 | 40 | 1 | 54 |  | 81 | 139 | 72 |  |  |  |  |  |  | IC50 [5]: 10 nM
CN(c1nc(OC[C@@]23CCCN2C[C@H](F)C3)nc2c(F)c(-c3ccc(F)c4sc(N)c(C#N)c34)c(Cl)cc12)[C@H]1C[C@@H]1F [Example 202, 2-amino-4-(6-chloro-8-fluoro-4-(((1S,2S)-2-fluorocyclopropyl)(methyl)amino)-2-(((2R,7aS)-2-fluorotetrahydro-1H-pyrrolizin-7a(5H)-yl)methoxy)quinazolin-7-yl)-7-fluorobenzo[b]thiophene-3-carbonitrile] | 63 | 145 | 200 | 3350 | 498 |  | 24 |  |  |  |  |  |  |  |  |  |  | 104 | 200 | 
N#Cc1c(N)sc2c(F)ccc(-c3c(Cl)cc4c(N5CCC5CO)nc(OC[C@@]56CCCN5C[C@H](F)C6)nc4c3F)c12 (stereo partly drawn) [Example 209, 2-amino-4-(6-chloro-8-fluoro-2-(((2R,7aS)-2-fluorotetrahydro-1H-pyrrolizin-7a(5H)-yl)methoxy)-4-(2-(hydroxymethyl)azetidin-1-yl)quinazolin-7-yl)-7-fluorobenzo[b]thiophene-3-carbonitrile] | 9 | 47 | 68 | 1690 | 83 |  | 15 |  |  | 4 |  |  |  | 2 | < 2 | 2 | 7 | 27 | 93 | 
N#Cc1c(N)sc2c(F)ccc(-c3c(Cl)cc4c(N5CCCCCC5)nc(OC[C@@]56CCCN5C[C@H](F)C6)nc4c3F)c12 [Example 210, 2-amino-4-(4-(azepan-1-yl)-6-chloro-8-fluoro-2-(((2R,7aS)-2-fluorotetrahydro-1H-pyrrolizin-7a(5H)-yl)methoxy)quinazolin-7-yl)-7-fluorobenzo[b]thiophene-3-carbonitrile] | 10 | 25 | 38 | 1190 | 54 |  | 5 |  |  |  |  |  |  |  |  |  |  | 22 | 21 | 
N#Cc1c(N)sc2c(F)ccc(-c3c(Cl)cc4c(N5CCCOCC5)nc(OC[C@@]56CCCN5C[C@H](F)C6)nc4c3F)c12 [Example 211, 2-amino-4-(6-chloro-8-fluoro-2-(((2R,7aS)-2-fluorotetrahydro-1H-pyrrolizin-7a(5H)-yl)methoxy)-4-(1,4-oxazepan-4-yl)quinazolin-7-yl)-7-fluorobenzo[b]thiophene-3-carbonitrile] | 3 | 13 | 15 | 1270 | 18 |  |  |  |  | < 2 |  |  |  | < 2 | 2 | < 2 | 3 | 12 | 22 | 
N#Cc1c(N)sc2c(F)ccc(-c3c(Cl)cc4c(NC5CS(=O)(=O)C5)nc(OC[C@@]56CCCN5C[C@H](F)C6)nc4c3F)c12 [Example 218, 2-amino-4-(6-chloro-4-((1,1-dioxidothietan-3-yl)amino)-8-fluoro-2-(((2R,7aS)-2-fluorotetrahydro-1H-pyrrolizin-7a(5H)-yl)methoxy)quinazolin-7-yl)-7-fluorobenzo[b]thiophene-3-carbonitrile] | 57 | 365 | 720 | 5110 | 566 |  | 80 |  |  |  |  |  |  |  |  |  |  | 429 | 1650 | 
